This note sets out measurements from EPA's ToxRefDB 2.

The test system of one data set is dog. The note with it: Chronic toxicity, beagle, Injection, Subcutaneous, dose end: 74 week, group: systemic.
For data set [1], the system named is rat. The note with it: Prenatal developmental toxicity study, other, Oral, Gavage/Intubation, dose end: 15 GD.
In a further data set the test system is rabbit. The note with it: Prenatal developmental toxicity study, new zealand white, Oral, Gavage/Intubation, dose end: 19 GD.
In data set [2] the test system is rat. The note with it: Subchronic oral toxicity in rodents, sprague dawley, Feed, dose end: 13 week, group: systemic.
In data set [3] the test system is rat. The note with it: Developmental neurotoxicity study; wistar; Oral; Water; dose end: 60 PND; group: cannot be grouped; systemic / in life observation / body weight / offspring (pup) weight gain.
In data set [4] the test system is rat. The note with it: Developmental neurotoxicity study; other; Injection; Intraperitoneal; dose end: 141 PND; group: cannot be grouped; systemic / clinical chemistry / norepinephrine (noradrenaline) / norepinephrine (noradrenaline) + systemic / in life observation / water ….
The test system of the next data set is mouse. The note with it: Carcinogenicity, b6c3f1, Oral, Gavage/Intubation, dose end: 60 week, group: systemic.
Data set [5] has as its system rat. The note with it: Carcinogenicity; other; Oral; Gavage/Intubation; dose end: 78 week; group: systemic; systemic / in life observation / body weight / body weight gain + systemic / pathology microscopic / kidney / nephropathy + systemic / ….
The mark [6] stands for this setting: systemic / clinical chemistry / cholesterol / cholesterol + systemic / clinical chemistry / glucose / glucose + systemic / hematology / [….
Where [7] appears, read: systemic / clinical chemistry / cholesterol / cholesterol + systemic / hematology / [other] / [other] + systemic / hematology / hematocrit (….
Setting [8] is: group: developmental, developmental / developmental malformation / bone / incomplete ossification + developmental / developmental malformation / bone / unossified.
[9] abbreviates: group: maternal, reproductive / reproductive performance / aborted / aborted + systemic / in life observation / body weight / body weight + systemic / in ….
The mark [10] stands for this setting: group: developmental, developmental / developmental malformation / general / [other] + developmental / developmental malformation / bone / arthrogryposis + ….
[11] abbreviates: group: maternal, systemic / in life observation / body weight / body weight + systemic / in life observation / food consumption / food efficiency + systemic….
Where [12] appears, read: systemic / clinical chemistry / alanine aminotransferase (alt/sgpt) / alanine aminotransferase (alt/sgpt) + systemic / clinical chemistry / ….
Setting [13] is: systemic / urinalysis / appearance and color / appearance and color + systemic / organ weight / liver / relative to body weight.
Where [14] appears, read: systemic / pathology microscopic / kidney / nephropathy.
[15] abbreviates: systemic / pathology microscopic / kidney / nephropathy + systemic / pathology microscopic / stomach / squamous cell carcinoma + systemic / ….

`CC(=O)[C@H]1CC[C@H]2[C@@H]3CCC4=CC(=O)CC[C@]4(C)[C@H]3CC[C@]12C` [Progesterone]: in the data set on dog (setting [6]), the LOAEL is > 22.5 mg/kg/day and the NOAEL was ≥ 22.5 mg/kg/day. For the same compound, in the data set with dog (setting [7]), the LEL was found to be 2.5 mg/kg/day and the NEL was < 2.5 mg/kg/day.

For `CCC(C)Nc1c([N+](=O)[O-])cc(C(C)(C)C)cc1[N+](=O)[O-]` (stereo not given) [Butralin], the LEL in the data set with rat [1] (setting [8]) amounted to 500 mg/kg/day; with rat [1] (setting [9]) it was 1250 mg/kg/day; with rabbit (setting [10]), 45 mg/kg/day; in the data set with rabbit (setting [11]), 135 mg/kg/day; with rat [2] (setting [13]), 10 mg/kg/day. For the same compound, the lowest-observed-adverse-effect level (LOAEL) in the data set with rat [1] (setting [8]) amounted to 500 mg/kg/day; with rat [1] (setting [9]), 1250 mg/kg/day; with rabbit (group: developmental, developmental / developmental malformation / general / [other]) it was 45 mg/kg/day; with rabbit (group: maternal, systemic / in life observation / body weight / body weight + systemic / in life observation / food consumption / food efficiency), 135 mg/kg/day; with rat [2] (setting [12]), 50 mg/kg/day. Moreover, the NEL in the data set on rat [1] (setting [8]) was < 500 mg/kg/day; in the data set with rat [1] (setting [9]) it was 500 mg/kg/day; in the data set with rabbit (setting [10]) it was 15 mg/kg/day; in the data set with rabbit (setting [11]), 45 mg/kg/day; in the data set on rat [2] (setting [13]) it was < 10 mg/kg/day. Also, the NOAEL was < 500 mg/kg/day in the data set on rat [1] (setting [8]); 500 mg/kg/day in the data set with rat [1] (setting [9]); 15 mg/kg/day in the data set on rabbit (setting [10]); 45 mg/kg/day in the data set on rabbit (setting [11]); 10 mg/kg/day with rat [2] (setting [12]).

Consider `CC(C)NCC(O)COc1cccc2ccccc12.Cl` (stereo not given) [Propranolol hydrochloride], for which, in the data set with rat [3], the LEL worked out at 10 mg/kg/day, the LOAEL was > 10 mg/kg/day, the NEL was < 10 mg/kg/day and the no observed adverse effect level (NOAEL) was ≥ 10 mg/kg/day. For the same compound, in the data set on rat [4], the LEL was determined as 5 mg/kg/day, the LOAEL is > 5 mg/kg/day, the NEL is < 5 mg/kg/day and the NOAEL was ≥ 5 mg/kg/day.

As for `ClCC(Br)CBr` (stereo not given) [1,2-Dibromo-3-chloropropane], in the data set on mouse (setting [14]), the lowest observed adverse effect level (LOAEL) was found to be 110 mg/kg/day and the no-observed-adverse-effect level (NOAEL) is < 110 mg/kg/day. Moreover, in the data set with mouse (setting [15]), the LEL is 110 mg/kg/day and the NEL is < 110 mg/kg/day. In addition, in the data set on rat [5], the LEL was found to be 15 mg/kg/day, the LOAEL is 15 mg/kg/day, the NEL was < 15 mg/kg/day and the NOAEL was < 15 mg/kg/day.
